Drawing on patent US8927560B2, “4-Aza-2, 3-didehydropodophyllotoxin compounds and process for the preparation thereof” (Council of Scientific & Industrial Research, priority 2010, dated 2015), this text covers GI50 and melting point for 3 compounds.

SMILES strings stand for the structures. Some results are limits rather than exact numbers.

The subject of one series is KB. Description: SRB in vitro cytotoxicity assay, KB oral cancer cells. The class given is cell-based. As to conditions: Homo sapiens, 48 h drug exposure, read-out: In vitro anticancer activity GI50, Oral KB. The source says:
(§1) Compounds 4a-4z and 4aa-4ae have been evaluated for their in vitro cytotoxicity in selected human cancer cell lines i.e., colon (Colo205), lung (Hop-62, A549), cervix (SiHa), prostate (PC3), oral (KB, DWD, Gurav), Ovarian (A-2780) and breast (MCF7, Zr-75-1) origin by employing the sulforhodamine B (SRB) assay method (Skehn, P.; Storeng, R.; Scudiero, A.; Monks, J.; MeMohan, D.; Vistica, D.; Jonathan, T. W.; Bokesch, H.; Kenney, S.; Boyd M. R. J. Natl. Cancer Inst. 1990, 82, 1107).
(§2) The synthesized compounds have been evaluated for their in vitro cytotoxicity in human cancer cell lines. A protocol of 48 h continuous drug exposure has been used and a sulforhodamine B (SRB) protein assay has been used to estimate cell viability or growth. The cell lines were grown in DMEM medium containing 10% fetal bovine serum and 2 mM L-glutamine and were inoculated into 96 well microtiter plates in […] at plating densities depending on the doubling time of individual cell lines. The microliter plates were incubated at 37_C, 5% CO2, 95% air, and 100% relative humidity for 24 h prior to addition of experimental drugs. Aliquots of […] of the drug dilutions were added to the appropriate microliter wells already containing […] of cells, suiting in the required final drug concentrations. For each compound four concentrations (0.1, 1, 10 and 100 uM) were evaluated and each was done in triplicate wells. Plates were incubated further for 48 h and assay was terminated by the addition of […] of cold trichloro acetic acid (TCA) (final concentration, 10% TCA) and incubated for 60 min at 4_C. The plates were washed five times with tap water and airdried. Sulforhodamine B (SRB) solution ([…]) at 0.4% (w/v) in 1% acetic acid was added to each of the cells, and plates were incubated for 20 min at room temperature. The residual dye was removed by washing five times with 1% acetic acid. The plates were airdried. Bound stain was subsequently eluted with 10 mM trizma base, and the absorbance was read on an ELISA plate reader at a wavelength of 540 nm with 690 nm reference wavelengths. Percent growth was calculated on a plate by plate basis for test wells relative to control wells. The above determinations were repeated three times. Percentage growth was expressed as the (ratio of average absorbance of the test well to the average absorbance of the control wells)*100. Growth inhibition of 50% (GI50) was calculated from [(Ti−Tz)/(C−Tz)]*100 ¼ 50, which is the drug concentration resulting in a 50% reduction in the net protein increase (as measured by SRB staining) in control cells during the drug incubation. Where, Tz ¼ Optical density at time zero, OD of control ¼ C, and OD of test growth in the presence of drug ¼ Ti.

The test system of the next series is SiHa. The series can be described thus: SRB in vitro cytotoxicity assay, SiHa cervix cancer cells. The series is classed as cell-based. The note with it: Homo sapiens, 48 h drug exposure, read-out: In vitro anticancer activity GI50, Cervix SiHa.
Source text: as §1, §2

A further series relates to Zr-75-1. Description: SRB in vitro cytotoxicity assay, Zr-75-1 breast cancer cells. The series is classed as cell-based. The note with it: Homo sapiens, 48 h drug exposure, read-out: In vitro anticancer activity GI50, Breast Zr-75-1.
Source text: as §1, §2

In a further series the test system is Gurav. Description: SRB in vitro cytotoxicity assay, Gurav oral cancer cells. The class given is cell-based. The note with it: Homo sapiens, 48 h drug exposure, read-out: In vitro anticancer activity GI50, Oral Gurav.
Source text: as §1, §2

For a further series, the system named is Colo 205. The series can be described thus: SRB in vitro cytotoxicity assay, Colo 205 colon cancer cells. The note with it: Homo sapiens, 48 h drug exposure, read-out: In vitro anticancer activity GI50, Colon Colo 205. The class given is cell-based.
Source text: as §1, §2

The test system of a further series is DWD. The series can be described thus: SRB in vitro cytotoxicity assay, DWD oral cancer cells. The series is classed as cell-based. As to conditions: Homo sapiens, 48 h drug exposure, read-out: In vitro anticancer activity GI50, Oral DWD.
Source text: as §1, §2

A further series has as its system Hop62. The series can be described thus: SRB in vitro cytotoxicity assay, Hop62 lung cancer cells. The class given is cell-based. As to conditions: Homo sapiens, HOP-62, 48 h drug exposure, read-out: In vitro anticancer activity GI50, Lung Hop62.
Source text: as §1, §2

For another series, the system named is A-549. The series can be described thus: SRB in vitro cytotoxicity assay, A-549 lung cancer cells. The class given is cell-based. As to conditions: Homo sapiens, A549, 48 h drug exposure, read-out: In vitro anticancer activity GI50, Lung A-549.
Source text: as §1, §2

For another series, the system named is A-2780. Description: SRB in vitro cytotoxicity assay, A-2780 ovarian cancer cells. The class given is cell-based. The note with it: Homo sapiens, A2780, 48 h drug exposure, read-out: In vitro anticancer activity GI50, Ovarian A-2780.
Source text: as §1, §2

A further series has as its system PC3. The series can be described thus: SRB in vitro cytotoxicity assay, PC3 prostate cancer cells. The class given is cell-based. The note with it: Homo sapiens, PC-3, 48 h drug exposure, read-out: In vitro anticancer activity GI50, Prostate PC3.
Source text: as §1, §2

The test system of another series is MCF7. Description: SRB in vitro cytotoxicity assay, MCF7 breast cancer cells. The class given is cell-based. The note with it: Homo sapiens, 48 h drug exposure, read-out: In vitro anticancer activity GI50, Breast MCF7.
Source text: as §1, §2

What is called GI50 is the concentration that inhibits growth by half. In the case of `COc1cccc2c1C(=O)c1c(O)c3c(c(O)c1C2=O)C[C@@](O)(C(=O)CO)C[C@@H]3O[C@H]1C[C@H](N)[C@H](O)[C@H](C)O1` [ADR, adriamycin, reference compound], the GI50 in the series on KB was 130 nM; in the series with SiHa it was 160 nM; with Zr-75-1, 110 nM; in the series with Gurav it was less than 100 nM; with Colo 205 it was less than 100 nM; in the series on DWD it was less than 100 nM. In addition, the GI50 with Hop62 is 150 nM; in the series with A-549, less than 100 nM; in the series with A-2780, less than 100 nM; with PC3, 160 nM; in the series with MCF7, 130 nM.
With `COc1cc(C2C3=C(COC3=O)Nc3ccc4cn[nH]c4c32)cc(OC)c1OC` (stereo not shown) [Compound 4n, 10-(3,4,5-trimethoxyphenyl)-6,7,9,10-tetrahydro-1H-furo[3,4-b]pyrazolo[3,4-f]quinolin-9-one], the concentration for 50% growth inhibition (GI50) with KB is 2100 nM; in the series on SiHa it was 190 nM; in the series with Zr-75-1, 160 nM; in the series on Gurav it was 160 nM; with Colo 205 it was 2700 nM; with DWD, less than 100 nM. For the same compound, the GI50 in the series on Hop62 is 2100 nM; in the series on A-549 it was less than 100 nM; in the series on A-2780, 140 nM; in the series on PC3 it was 190 nM; in the series with MCF7 it was 190 nM.
A word on the melting point: it is the temperature, or range, at which the solid turns liquid. On to `COc1ccc(C2C3=C(COC3=O)Nc3ccc4ncsc4c32)cc1O` (stereo not shown) [Compound 4u, 10-(3-hydroxy-4-methoxyphenyl)-6,7,9,10-tetrahydrofuro[3,4-b][1,3]thiazolo[5,4-f]quinolin-9-one], for which the melting point lay within 327 to 329 °C. For the same compound, the GI50 in the series with KB was 180 nM. In the series with SiHa, the GI50 stood at 2000 nM. In the series with Zr-75-1, the GI50 came out at 160 nM. The GI50 in the series on Gurav came out at 190 nM. In addition, the GI50 with Colo 205 was determined as 150 nM. The GI50 in the series on DWD turned out to be 2000 nM. Further, the GI50 in the series with Hop62 was determined as 2300 nM. The GI50 with A-549 is less than 100 nM. For the same compound, the GI50 in the series with A-2780 came out at 180 nM. The GI50 in the series on PC3 amounted to 2100 nM. In the series with MCF7, the GI50 came to 180 nM.
